# Patent US4695590A, “Method for retarding aging” (California Health Technologies, priority 1986, dated 1987)
# Tests used:
# [1] = test system: Glial cells from a human brain; assay: Cellular ATP production in cultivated glial cells (bioluminescence); type: cell-based; conditions: NDGA 0.5% w/v in culture
# Description: Glial cells from a human brain were cultivated by monolayering on Petri dishes. Cellular ATP production was measured using bioluminescent methods (luciferin, luciferase and photomultiplier detection).
# [2] = test system: microvascular lipid hydroperoxides; assay: Pharmacokinetic time-course (double-blind) study of single oral doses of NDGA, microvascular lipid hydroperoxides; type: in vivo, human
# Description: Placebos were given to two (2) other volunteers. Using the above referenced non-invasive technique called reflective, near-infrared spectroscopy, changes in the microvascular concentrations of lipid hydroperoxides were monitored during 8 hour test periods. […] Subjects received single doses of NDGA and placebos orally, respectively.
# Uppsala mice = Uppsala mice fed lab chow containing 0.5 weight% NDGA, observation of aging and skin wrinkling; type: in vivo
# Source text: In one aspect of practice of techniques of this invention, the compounds of formula (1) are useful in retarding the aging phenomena of skin wrinkling. In this example, twenty four (24) Uppsala mice were fed standard lab chow (provided by Anticimax of Sodertalje, Sweden) containing 0.5 weight% NDGA ad libitum from the twelfth to thirty-sixth month of their lifespan.
# This increased wrinkling is indicative of collagen and elastin hardening and cross-linking via the conversion of imide to amide bonds as discussed above.
# [3] = test system: Mitochondria from a human liver; assay: Chemiluminescent probe of superoxide and hydroxyl radicals in isolated mitochondria; type: biochemical
# Source text: Mitrochondria from a human liver were freshly isolated and maintained in a culture environment so that normal respiration and ATP production occurred. Special chemical probes, e.g. luminol-carnitine derivatives, were pipetted into the mitochondria culture media. Uptake of the probes occurred in the mitrochondrial inner membrane where oxygen metabolism and toxic oxygen byproducts are produced. The probes emitted chemiluminescent light in proportion to superoxide (O2^-.) and hydroxyl radicals (.OH). This light was measured by a photomultiplier, and the results were quantified and recorded.
# [4] = test system: lipid hydroperoxides in the skin; type: in vivo, human
# Source text: FIG. 3 is a graph showing the results of a double blind study set forth in Example 6, wherein a composition containing 2% NDGA by weight was applied topically to the skin of the foreheads of human volunters; and
# Turning to FIG. 3, the results of a double-blind time study using a composition containing 2% by weight NDGA can be seen. This composition was the same as the composition set forth in Example 3 with the exception that the percentage of water was reduced to 86.5%. Starting at time zero, 10 milliliters of this cream was vigorously applied topically onto the skin of the forehead of a volunteer. Measurements were taken at different intervals using non-invasive, reflective, near-infrared spectroscopy. The methods of non-invasive, reflective, near infrared spectroscopy used in this example are set forth in detail in R. Lippman, "Rapid in vivo Quantification and Comparision of Hydroperoxides and Oxidized Collagen in Aging Mice, Rabbits and Man", Experimental Gerontology, Vol. 20, pp. 1-5, 1985, which is incorporated herein by this reference.
# [5] = isolated human liver mitochondria
smiles,measurement,setting,value
"CC(Cc1ccc(O)c(O)c1)C(C)Cc1ccc(O)c(O)c1 (stereo not drawn) [NDGA, 1,4-bis(3,4-dihydroxyphenyl)-2,3-dimethylbutane]",steady state ATP production,[1],increase in steady state ATP production was observed
same,reduction of levels of microvascular lipid hydroperoxides,"[2]; oral, single doses 50, 75, 100 and 200 mg, during the 4 to 8 hour study periods",at least 15%
same,"neutralization of toxic byproducts of oxygen metabolism, i.e. lipid hydroperoxides (conclusion)","[2]; when taken at regular intervals of at least 6 hours, 3 times daily",effective neutralizer of toxic byproducts of oxygen metabolism
same,"skin wrinkling, control mice versus NDGA fed mice",Uppsala mice; 0.5 weight% NDGA in chow,greater skin wrinkling in control mice versus NDGA fed mice
same,visual appearance (youthful and healthy) versus control mice,"Uppsala mice; 0.5 weight% NDGA in chow from twelfth month, at 26 months of age",visually more youthful and healthy
same,NDGA fed mice still living,"Uppsala mice; 24 mice at start, 0.5 weight% NDGA in chow, one control mouse of 6 remaining",four
same,lifespan of the human mitochondria,[3]; [5],Increased lifespan of the human mitochondria
same,toxic oxygen byproducts,[3]; [5],significantly reduced toxic oxygen byproducts
same,steady state light (chemiluminescence of superoxide and hydroxyl radicals),[3]; luminol-carnitine derivative probes,significantly reduced the steady state light
same,"facial skin and skin unsaturated lipids, damage",[4]; 2% by weight NDGA cream topically on forehead,"facial skin and skin unsaturated lipids are preserved, and damage is prevented"
same,return to normal level of lipid hydroperoxides,"[4]; 2% by weight NDGA cream topically, after approximately 4 hours",190 micromole/cm^2
same,"lipid hydroperoxides in skin layers and microvascularization, level decreased to","[4]; 2% by weight NDGA cream, 10 milliliters topically on forehead, after about one hour, from about 190",~151 micromole/cm^2 skin
